From ChEMBL document CHEMBL5550160, “Leveraging a rationally designed veliparib-based anilide eliciting anti-leukemic effects for the design of pH-responsive polymer nanoformulation” (Eur J Med Chem, 2024) come the findings set out here.

In experiment [1] the target is T1, Histone deacetylase 7 (Homo sapiens) (UniProt Q8WUI4).
T1 sequence (whole entry): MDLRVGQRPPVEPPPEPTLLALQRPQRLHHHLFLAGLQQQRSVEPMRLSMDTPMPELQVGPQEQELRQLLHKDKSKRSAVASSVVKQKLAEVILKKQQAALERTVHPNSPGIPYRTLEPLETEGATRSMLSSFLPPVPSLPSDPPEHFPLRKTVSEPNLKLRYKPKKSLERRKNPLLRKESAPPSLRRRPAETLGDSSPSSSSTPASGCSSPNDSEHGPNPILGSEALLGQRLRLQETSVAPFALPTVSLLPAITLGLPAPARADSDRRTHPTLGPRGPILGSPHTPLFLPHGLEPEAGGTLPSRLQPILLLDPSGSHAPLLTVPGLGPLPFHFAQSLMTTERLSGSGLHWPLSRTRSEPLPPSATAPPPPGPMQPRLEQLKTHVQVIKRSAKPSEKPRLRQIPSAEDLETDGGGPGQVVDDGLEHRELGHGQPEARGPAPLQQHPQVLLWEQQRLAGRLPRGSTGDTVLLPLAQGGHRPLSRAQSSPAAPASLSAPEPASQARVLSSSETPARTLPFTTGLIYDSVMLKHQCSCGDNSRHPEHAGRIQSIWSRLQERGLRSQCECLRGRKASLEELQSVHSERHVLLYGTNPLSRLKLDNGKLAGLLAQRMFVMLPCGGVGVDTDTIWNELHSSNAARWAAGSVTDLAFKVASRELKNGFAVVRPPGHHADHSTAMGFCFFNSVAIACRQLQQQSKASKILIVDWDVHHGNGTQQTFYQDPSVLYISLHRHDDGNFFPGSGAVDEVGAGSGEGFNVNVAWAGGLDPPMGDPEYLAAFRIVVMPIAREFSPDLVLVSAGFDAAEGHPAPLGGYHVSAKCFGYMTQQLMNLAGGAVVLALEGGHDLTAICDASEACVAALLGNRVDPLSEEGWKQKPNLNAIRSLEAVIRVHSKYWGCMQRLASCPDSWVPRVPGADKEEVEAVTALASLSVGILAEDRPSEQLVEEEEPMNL
Put plainly: Inhibition of HDAC7 (unknown origin) assessed as residual activity at 4.12 x 10^-8M (reference value: 102.66%). The following applies: dose 4.12 10^-8M.

The target of experiment [2] is T2, Protein deacetylase HDAC6 (Homo sapiens) (UniProt Q9UBN7).
T2 sequence (whole entry): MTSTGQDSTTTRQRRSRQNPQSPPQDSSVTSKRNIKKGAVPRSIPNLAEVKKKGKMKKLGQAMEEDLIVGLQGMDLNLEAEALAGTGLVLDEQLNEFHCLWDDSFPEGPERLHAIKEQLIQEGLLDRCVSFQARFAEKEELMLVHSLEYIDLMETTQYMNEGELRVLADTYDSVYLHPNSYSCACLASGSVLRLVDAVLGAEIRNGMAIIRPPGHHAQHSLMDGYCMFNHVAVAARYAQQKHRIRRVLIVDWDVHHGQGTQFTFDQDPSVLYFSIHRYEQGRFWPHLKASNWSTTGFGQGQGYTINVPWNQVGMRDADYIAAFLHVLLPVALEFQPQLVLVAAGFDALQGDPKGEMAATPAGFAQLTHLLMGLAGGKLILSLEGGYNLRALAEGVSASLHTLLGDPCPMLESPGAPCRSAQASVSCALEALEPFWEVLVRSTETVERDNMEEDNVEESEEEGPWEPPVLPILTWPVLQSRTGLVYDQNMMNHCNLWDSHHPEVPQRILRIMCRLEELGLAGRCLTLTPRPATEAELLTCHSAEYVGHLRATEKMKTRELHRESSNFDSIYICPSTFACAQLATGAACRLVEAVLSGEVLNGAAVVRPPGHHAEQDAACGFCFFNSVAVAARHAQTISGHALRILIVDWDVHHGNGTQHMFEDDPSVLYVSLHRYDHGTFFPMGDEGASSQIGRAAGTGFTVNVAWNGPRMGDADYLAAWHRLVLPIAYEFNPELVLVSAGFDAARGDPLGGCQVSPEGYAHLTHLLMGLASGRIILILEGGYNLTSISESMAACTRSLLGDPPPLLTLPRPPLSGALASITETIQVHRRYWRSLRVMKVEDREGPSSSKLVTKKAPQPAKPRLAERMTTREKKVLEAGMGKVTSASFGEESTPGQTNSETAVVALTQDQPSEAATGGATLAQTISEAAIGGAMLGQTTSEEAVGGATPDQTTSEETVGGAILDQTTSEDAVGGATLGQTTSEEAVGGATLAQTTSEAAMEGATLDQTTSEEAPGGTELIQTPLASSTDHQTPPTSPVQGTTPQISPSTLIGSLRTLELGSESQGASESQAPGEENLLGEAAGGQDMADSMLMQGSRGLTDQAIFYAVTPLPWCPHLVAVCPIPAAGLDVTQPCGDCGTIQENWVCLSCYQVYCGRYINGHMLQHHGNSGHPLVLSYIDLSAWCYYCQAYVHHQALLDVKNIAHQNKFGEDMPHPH
Put plainly: Inhibition of HDAC6 (unknown origin) using p53 residues 379 to 382 [RHKK(Ac)] as fluorogenic substrate assessed as residual activity at 4.57 x 10^-9M (reference value: 101.06%). The following applies: dose 4.57 10^-9M.

Experiment [3] concerns the target T1, Histone deacetylase 7 (Homo sapiens). Put plainly: Inhibition of HDAC7 (unknown origin) assessed as residual activity at 1.1 x 10^-6M (reference value: 102.66%). The following applies: dose 1.1 10^-6M.
For the next experiment, the target named is Histone deacetylase 1 (Homo sapiens, UniProt Q13547). Nature of the experiment: Inhibition of HDAC1 (unknown origin) using p53 residues 379 to 382 [RHKK(Ac)] as fluorogenic substrate assessed as residual activity at 1 x 10^-5M (reference value: 98.06%). The following applies: dose 1.0 10^-5M.
Histone deacetylase 1, sequence (Q13547 whole entry, the tested form may be a part): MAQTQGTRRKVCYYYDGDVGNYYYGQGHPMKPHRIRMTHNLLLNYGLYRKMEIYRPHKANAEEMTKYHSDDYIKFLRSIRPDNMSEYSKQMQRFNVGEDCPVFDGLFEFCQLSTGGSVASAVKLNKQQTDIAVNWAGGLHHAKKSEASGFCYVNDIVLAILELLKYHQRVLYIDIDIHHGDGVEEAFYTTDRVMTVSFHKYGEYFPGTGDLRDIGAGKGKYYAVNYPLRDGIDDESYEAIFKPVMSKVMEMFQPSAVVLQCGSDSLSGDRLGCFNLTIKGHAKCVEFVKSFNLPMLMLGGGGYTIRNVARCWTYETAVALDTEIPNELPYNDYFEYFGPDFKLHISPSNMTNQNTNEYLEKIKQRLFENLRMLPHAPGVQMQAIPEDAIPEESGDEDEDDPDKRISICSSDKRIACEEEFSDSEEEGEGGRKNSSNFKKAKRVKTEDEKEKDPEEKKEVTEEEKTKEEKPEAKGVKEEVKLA
Experiment [4] has as its target Histone deacetylase 9 (Homo sapiens) (UniProt Q9UKV0). Nature of the experiment: Inhibition of HDAC9 (unknown origin) assessed as residual activity at 1.23 x 10^-7M (reference value: 97.55%). The following applies: dose 1.23 10^-7M.
Experiment [5] deals with T3, Histone deacetylase 8 (Homo sapiens) (UniProt Q9BY41).
T3 sequence (whole entry): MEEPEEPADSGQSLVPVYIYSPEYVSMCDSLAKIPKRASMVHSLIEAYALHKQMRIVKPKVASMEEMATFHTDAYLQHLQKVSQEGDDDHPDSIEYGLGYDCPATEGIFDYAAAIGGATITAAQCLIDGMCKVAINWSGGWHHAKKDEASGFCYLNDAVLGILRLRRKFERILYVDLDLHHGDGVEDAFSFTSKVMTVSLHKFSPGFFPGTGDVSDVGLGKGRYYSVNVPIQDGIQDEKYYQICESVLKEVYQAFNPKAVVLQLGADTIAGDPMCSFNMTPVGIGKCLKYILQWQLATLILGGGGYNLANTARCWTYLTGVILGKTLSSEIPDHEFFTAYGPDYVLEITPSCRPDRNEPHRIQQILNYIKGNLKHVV
Put plainly: Inhibition of HDAC8 (unknown origin) assessed as residual activity at 1.52 x 10^-9M (reference value: 100%). Particulars: dose 1.52 10^-9M.

The next experiment deals with PC-3. Put plainly: cells. Format: functional, cell-based. Particulars: Homo sapiens.

The structures appear in SMILES notation.

Histone deacetylase 9 (Homo sapiens), sequence (Q9UKV0 whole entry): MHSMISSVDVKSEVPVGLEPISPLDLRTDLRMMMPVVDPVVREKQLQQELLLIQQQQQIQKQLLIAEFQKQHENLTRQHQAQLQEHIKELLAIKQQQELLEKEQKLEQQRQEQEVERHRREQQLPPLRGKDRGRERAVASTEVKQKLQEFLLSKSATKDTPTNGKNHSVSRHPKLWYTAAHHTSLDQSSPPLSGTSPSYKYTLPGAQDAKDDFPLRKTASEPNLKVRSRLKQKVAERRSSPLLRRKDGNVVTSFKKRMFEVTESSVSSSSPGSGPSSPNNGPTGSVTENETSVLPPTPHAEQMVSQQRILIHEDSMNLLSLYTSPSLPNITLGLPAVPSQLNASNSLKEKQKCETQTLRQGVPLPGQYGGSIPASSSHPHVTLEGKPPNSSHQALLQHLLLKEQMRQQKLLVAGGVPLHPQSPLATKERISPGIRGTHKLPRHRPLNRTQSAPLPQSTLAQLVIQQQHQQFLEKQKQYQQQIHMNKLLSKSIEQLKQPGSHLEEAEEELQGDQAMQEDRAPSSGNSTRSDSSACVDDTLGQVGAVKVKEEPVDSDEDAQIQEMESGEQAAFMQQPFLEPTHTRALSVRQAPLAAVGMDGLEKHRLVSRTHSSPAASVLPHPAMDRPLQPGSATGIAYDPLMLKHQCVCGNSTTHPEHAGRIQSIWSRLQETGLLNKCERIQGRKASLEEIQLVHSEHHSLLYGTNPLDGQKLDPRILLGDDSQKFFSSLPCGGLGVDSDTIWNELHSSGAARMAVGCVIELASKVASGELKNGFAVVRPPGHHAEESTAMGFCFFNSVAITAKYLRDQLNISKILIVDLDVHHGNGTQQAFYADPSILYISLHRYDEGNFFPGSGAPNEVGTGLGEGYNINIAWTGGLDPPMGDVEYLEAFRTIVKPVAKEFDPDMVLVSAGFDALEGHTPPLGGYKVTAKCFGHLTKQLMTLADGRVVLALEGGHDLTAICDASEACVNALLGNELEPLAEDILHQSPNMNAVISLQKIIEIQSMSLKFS
Description for PC-3: Antiproliferative activity against human PC-3 cells assessed as inhibition of cell growth by MTT assay

By IC50 is commonly meant the midpoint of a concentration-inhibition curve. Low values mean higher potency, high ones lower potency. For the compound `NC(=O)c1cccc2[nH]c(-c3ccc(NCc4ccc(C(=O)Nc5ccccc5N)cc4)cc3)nc12`, the Activity amounted to 87% in experiment [1]; 103% in experiment [2]; 78.2% in experiment [3]; 12.3% at Histone deacetylase 1; 88.5% in experiment [4]; 103% in experiment [5]. In addition, in the experiment with PC-3, the IC50 was 4.01 µM.
